Experimental data from publication PMC7926627, “Fine-Tuning the Biological Profile of Multitarget Mitochondriotropic Antioxidants for Neurodegenerative Diseases” (Antioxidants, 2021).
Values joined by “and” are separate entries in the source; they are usually repeats but may differ in a detail not shown here. Equal entries are not always repeated. Where two headings read alike, the source gives them in different places. Marks after values point to notes of the source that are not given here.

Assays:
[1] = design: method as in Camurri et al. [13]; conditions: standard mixture for calibration; ref Camurri et al. [13]; cited from earlier work
[2] = molecular target: T1, eeAChE (electric eel acetylcholinesterase) (Electrophorus electricus, UniProt O42275); experiment: eeAChE inhibition, Ellman's method; assay type: biochemical
T1 construct: Eel acetylcholinesterase (eeAChE, E.C. 3.1.1.7, from Electrophorus electricus); purchased Sigma Aldrich
T1 sequence (O42275 24-633): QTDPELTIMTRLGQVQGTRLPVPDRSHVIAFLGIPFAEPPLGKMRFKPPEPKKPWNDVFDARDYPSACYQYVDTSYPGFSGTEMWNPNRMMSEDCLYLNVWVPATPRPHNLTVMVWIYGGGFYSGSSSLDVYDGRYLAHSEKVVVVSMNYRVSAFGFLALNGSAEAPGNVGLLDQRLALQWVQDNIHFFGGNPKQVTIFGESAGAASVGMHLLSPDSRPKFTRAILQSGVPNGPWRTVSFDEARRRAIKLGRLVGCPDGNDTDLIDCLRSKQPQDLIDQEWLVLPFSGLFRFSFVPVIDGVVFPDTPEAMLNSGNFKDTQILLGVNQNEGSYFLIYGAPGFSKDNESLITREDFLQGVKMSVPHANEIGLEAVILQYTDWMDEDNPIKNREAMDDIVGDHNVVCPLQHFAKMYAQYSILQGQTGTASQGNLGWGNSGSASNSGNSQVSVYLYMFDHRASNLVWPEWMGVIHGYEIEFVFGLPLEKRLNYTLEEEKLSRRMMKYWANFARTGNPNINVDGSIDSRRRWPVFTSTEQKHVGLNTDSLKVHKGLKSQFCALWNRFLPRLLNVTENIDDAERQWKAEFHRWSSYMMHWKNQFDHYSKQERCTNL
Method: (§1) The eeAChE and eqBChE inhibitory activities of the compounds under study were determined following the Ellman’s method [32, 33]
(§2) Substrate solutions (ATCI or BCTI) were prepared in deionized water (conductivity ˂ 0.1 µS.cm-
(§3) Evaluation of eel acetylcholinesterase and equine butyrylcholinesterase inhibitory
(§4) The eeAChE and eqBChE inhibitory activities of the compounds under study were evaluated following the Ellman’s method [1, 2]. Briefly, a mixture containing sodium phosphate buffer, enzyme (final concentration: eeAChE 0.05 U/mL and eeBChE 0.05 U/mL), DTNB (final concentration: 400 µM) and the test compounds/reference inhibitors were preincubated for 5 minutes at 30 °C in a 96-well microplate (BRANDplates, pureGradeTM, BRAND GMBH, Wertheim, Germany). In control experiments, sodium phosphate buffer was used instead of the
(§5) ºC in a microplate reader (BioTek Synergy HT from BioTek Instruments, Winooski, VT, USA).
(§6) The rates of the substrate enzymatic hydrolysis were determined, normalized and plotted against the respective inhibitor concentration. IC50 values were obtained from the dose-response curves
(§7) and were expressed as mean ± standard deviation. IC50 values were determined in at least three
(§8) independent experiments, each performed at least in triplicates.

[3] = molecular target: T2, eqBChE (equine butyrylcholinesterase) (Equus caballus, UniProt P81908); experiment: biochemical
T2 construct: butyrylcholinesterase (eqBuChE, E.C. 3.1.1.8, from equine serum); purchased Sigma Aldrich; host or cells: equine serum
T2 sequence (P81908 whole entry): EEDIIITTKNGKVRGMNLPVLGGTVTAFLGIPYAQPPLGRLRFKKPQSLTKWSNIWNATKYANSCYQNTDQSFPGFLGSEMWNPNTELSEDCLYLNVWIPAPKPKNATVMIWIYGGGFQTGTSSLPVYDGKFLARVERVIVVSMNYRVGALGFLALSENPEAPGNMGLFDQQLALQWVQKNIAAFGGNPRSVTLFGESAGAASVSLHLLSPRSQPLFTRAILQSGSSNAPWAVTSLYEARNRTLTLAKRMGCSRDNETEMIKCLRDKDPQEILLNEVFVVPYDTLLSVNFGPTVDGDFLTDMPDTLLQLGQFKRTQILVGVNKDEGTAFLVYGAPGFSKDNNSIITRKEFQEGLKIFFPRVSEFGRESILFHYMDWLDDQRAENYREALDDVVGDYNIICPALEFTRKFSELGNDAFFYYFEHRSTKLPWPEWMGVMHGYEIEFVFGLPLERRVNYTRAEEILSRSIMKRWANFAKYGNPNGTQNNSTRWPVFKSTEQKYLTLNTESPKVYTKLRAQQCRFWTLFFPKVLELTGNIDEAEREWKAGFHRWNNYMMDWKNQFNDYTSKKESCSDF
Method: as §1, §2, §3, §4, §5, §6, §7, §8

[4] = molecular target: T3, hMAO-A (Homo sapiens, UniProt P21397); experiment: hMAO-A inhibition, kynuramine substrate; assay type: biochemical
T3 construct: purchased Sigma Aldrich; host or cells: insect cells (BTI-TN-5B1-4), baculovirus
T3 sequence (P21397 1-527): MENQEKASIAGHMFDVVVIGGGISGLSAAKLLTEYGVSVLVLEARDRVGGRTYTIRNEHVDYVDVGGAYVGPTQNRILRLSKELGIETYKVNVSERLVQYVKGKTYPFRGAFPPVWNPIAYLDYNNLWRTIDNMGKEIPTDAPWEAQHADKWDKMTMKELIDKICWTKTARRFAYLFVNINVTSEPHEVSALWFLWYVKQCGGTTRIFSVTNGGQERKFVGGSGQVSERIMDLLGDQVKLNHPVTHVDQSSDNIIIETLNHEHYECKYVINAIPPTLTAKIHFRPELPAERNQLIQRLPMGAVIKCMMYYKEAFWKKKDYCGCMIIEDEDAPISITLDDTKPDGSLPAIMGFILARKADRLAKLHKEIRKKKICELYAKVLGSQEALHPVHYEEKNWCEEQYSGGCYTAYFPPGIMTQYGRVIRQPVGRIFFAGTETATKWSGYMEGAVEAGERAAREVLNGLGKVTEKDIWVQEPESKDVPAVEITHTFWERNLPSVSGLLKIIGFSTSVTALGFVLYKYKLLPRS
Method: (§9) The inhibitory activity of lipophilic TPP^+ cations on hMAO-A and hMAO-B was studied using an experimental protocol described elsewhere [29, 40]
(§10) Evaluation of human monoamine oxidase (hMAO) inhibitory activity The human monoamine oxidase (hMAO) inhibitory outline was assessed in microsomal MAO isoforms prepared from insect cells (BTI-TN-5B1-4) infected with recombinant baculovirus containing cDNA inserts for hMAO-A or hMAO-B an d by measuring the enzymatic conversion rates of kynuramine into 4-hydroxyquinoline. The appropriate amounts of hMAO-A and hMAO-B were adjusted to obtain, in our experimental conditions, the same maximum
(§11) All assays were performed in sodium phosphate buffer solution 50 mM pH 7.4.
(§12) The compounds under study and reference inhibitors were pre-incubated at 37 °C for 10
(§13) concentration: 2×Km) in 96-well microplates (BRANDplates, pureGradeTM, BRAND GMBH, Wertheim, Germany). Then, the reaction was started with the addition of hMAO-A or hMAO-B.
(§14) Initial velocities were determined spectrophotometrically in a microplate reader (BioTek Synergy HT from BioTek Instruments, Winooski, VT, USA) at 37 °C by measuring the formation of 4-
(§15) The initial velocities, obtained from the linear phase of product formation, were normalized and plotted against the respective inhibitor concentration. IC50 values were obtained from dose-response curves and were expressed as mean ± standard deviation. IC50 values were determined from at least three independent experiments, each performed in triplicate.

[5] = Oxygen radical absorbance capacity (ORAC-FL) assay; conditions: for ORAC-FL Index: relative Trolox equivalent ORAC value
[6] = test system: differentiated SH-SY5Y cells; experiment: Resazurin reduction assay (cytotoxicity); assay type: cell-based, human; conditions: 24 h, concentrations up to 100 µM
Method: For cytotoxicity studies, differentiated SH-SY5Y cells were incubated with increasing concentrations of the test compounds (0.20–100 µM) for 24 h. Controls were treated with culture media containing 0.1% DMSO. Cell viability was estimated using two different methods: resazurin reduction assay and NR uptake assay. […]
days. The cultures were passaged once a week by trypsinization (0.25 % trypsin/1 mM EDTA).
To avoid phenotypic changes, the cells used for all experiments were taken between 19th and 28th passages. Cells were differentiated as described previously by Fernandes et al.. Briefly, SH-SY5Y cells were seeded onto 96-well plates at a density of 25,000 cells/cm2 in cell culture medium with trans-retinoic acid (RA) (final concentration of 10 µM) and incubated for 3 days at 37 °C in a humidified, 5% CO2−95% air atmosphere. The cell culture medium was then removed and replaced with medium supplemented with 12-O-tetradecanoylphorbol-13-acetate (TPA) (final concentration 80 nM), and cells were incubated for 3 days. Stock solutions of RA (10 mM) and TPA (80 µM) were prepared in DMSO.
1.5.3. Cytotoxicity assays
1.5.3.1. Resazurin reduction assay
Resazurin is a non-fluorescent, non-toxic water-soluble dye able to permeate through cell […]
highly fluorescent resorufin [8, 9]. Since the conversion of resazurin into resorufin occurs mostly in mitochondria, the amount of resorufin produced can be used as indicator of metabolic activity. The quantity of resorufin production is proportional to the number of viable cells in culture and can be quantified fluorometrically or colorimetrically.
Resazurin reduction assay was performed as previously described by Fernandes et al..
Briefly, after the 24 h incubation periods with the test compounds, the cell culture medium was removed and replaced with fresh culture medium with resazurin (10 μg/mL) prepared in cell culture medium. Differentiated SH-SY5Y cells were incubated for 2 h at 37 °C in a humidified 5% CO2−95% air atmosphere. Then, the fluorescence was read in a multiwell microplate reader (PowerWave XS from BioTek Instruments, Vermont, US), using an excitation wavelength of 540 nm and an emission wavelength of 590 nm. The results were expressed as the percentage of resazurin reduction relative to that of the control (non-treated) cells [resazurin reduction (% of […]
1.5.3.2. Neutral red uptake assay
The neutral red (NR) uptake assay is based on the ability of viable cells to incorporate the supravital dye NR and retain it inside the lysosomes. NR uptake assay was performed as previously described by Fernandes et al. Briefly, after the 24 h incubation periods with the test compounds, the cell culture medium was removed and NR solution ([…]) in fresh cell culture medium was added. Differentiated SH-SY5Y cells and Caco-2 cells were incubated for 2 h and 1 h, respectively, at 37 °C in a humidified, 5% CO2−95% air atmosphere. Then, the cell culture medium was removed and replaced by ethanol absolute/distilled water (1:1) with 5 % acetic acid to liberate the dye from the viable cells. The absorbance was measured at 540 nm in a […]

[7] = test system: differentiated SH-SY5Y cells; experiment: Neutral red (NR) uptake assay (cytotoxicity); assay type: cell-based, human; conditions: 24 h, increasing concentrations up to 100 µM
Method: To avoid phenotypic changes, the cells used for all experiments were taken between 19th and 28th passages. Cells were differentiated as described previously by Fernandes et al. [6]. Briefly, SH-SY5Y cells were seeded onto 96-well plates at a density of 25,000 cells/cm2 in cell culture medium with trans-retinoic acid (RA) (final concentration of 10 µM) and incubated for 3 days at
The neutral red (NR) uptake assay is based on the ability of viable cells to incorporate the supravital dye NR and retain it inside the lysosomes [11]. NR uptake assay was performed as previously described by Fernandes et al. [12] Briefly, after the 24 h incubation periods with the test compounds, the cell culture medium was removed and NR solution (50 mg/mL) in fresh cell culture medium was added. Differentiated SH-SY5Y cells and Caco-2 cells were incubated for 2
multiwell microplate reader (PowerWave XS from BioTek Instruments). The results were
expressed as the percentage of NR uptake relative to that of the control (non-treated) cells [NR
uptake (% of control)] ± standard error mean (SEM) of at least three independent experiments.
Stock solutions of the test compounds (10 µM) were prepared in DMSO and diluted in

[8] = design: method as in Teixeira et al. [19],[20]; conditions: ref Teixeira et al. [19],[20]; cited from earlier work
[9] = Chromatographic hydrophobicity index by gradient RP-HPLC at pH 2.3
Method: Chromatographic hydrophobicity indexes (CHIs) at pH 2.3 were determined using an experimental protocol described elsewhere [45, 46] and included in the supplementary information.
Evaluation of the chromatographic hydrophobicity index
Chromatographic hydrophobicity indexes (CHIs) values were determined using the
retention times (tR) of samples and a mixture of reference compounds. The data was acquired on
a Shimadzu high-performance liquid chromatograph SPD-M20A system (Shimadzu, Kyoto,
Japan) with a Luna C18 (2) column (Phenomenex, CA, USA) 150×4.6 mm, 5 µm. In CHI
determinations at pH 2.3, mobile phase A was aqueous solution of acetic acid 1 % (v/v) (pH 2.3),
and mobile phase B was acetonitrile. The following gradient program was applied: 1 mL/min
Calibration plots were obtained using a mixture of the following compounds:
paracetamol, theophylline, caffeine, benzimidazole, colchicine, carbamazepine, indole,
propiophenone, butyrophenone, valerophenone, and heptanophenone (Table S1, Figure S2).
hydrophobicity index (CHI) values were calculated as previously described [13, 14].

[10] = molecular target: T4, hMAO-B (Homo sapiens, UniProt P27338); experiment: biochemical; design: purchased Sigma Aldrich; host or cells: insect cells (BTI-TN-5B1-4), baculovirus
T4 sequence (P27338 1-520): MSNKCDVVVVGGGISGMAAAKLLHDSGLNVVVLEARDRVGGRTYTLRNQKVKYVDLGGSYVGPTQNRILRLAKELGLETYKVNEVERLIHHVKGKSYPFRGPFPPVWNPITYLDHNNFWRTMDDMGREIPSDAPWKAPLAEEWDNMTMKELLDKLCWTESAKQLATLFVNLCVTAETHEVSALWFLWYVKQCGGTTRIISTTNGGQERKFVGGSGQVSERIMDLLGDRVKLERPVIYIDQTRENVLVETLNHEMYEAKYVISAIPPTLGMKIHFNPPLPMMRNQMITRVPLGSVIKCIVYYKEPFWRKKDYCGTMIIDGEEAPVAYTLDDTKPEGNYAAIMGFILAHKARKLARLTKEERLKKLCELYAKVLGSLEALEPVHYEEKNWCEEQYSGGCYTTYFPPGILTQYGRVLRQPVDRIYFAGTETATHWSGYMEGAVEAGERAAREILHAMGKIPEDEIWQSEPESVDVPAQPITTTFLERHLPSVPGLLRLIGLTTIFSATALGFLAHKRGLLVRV
Method: as §9, §10, §11, §12, §13, §14, §15

[11] = molecular target: T2, eqBChE (equine butyrylcholinesterase); design: method as in Benfeito et al. [22]; conditions: ref Benfeito et al. [22]; cited from earlier work
[12] = molecular target: T3, hMAO-A; design: method as in Chavarria et al. [29]; conditions: read-out: IC50 hMAO-A; ref Chavarria et al. [29]; cited from earlier work
[13] = molecular target: T4, hMAO-B; conditions: read-out: IC50 hMAO-B; ref Chavarria et al. [29]; cited from earlier work
[14] = test system: differentiated SH-SY5Y cells; conditions: at concentrations up to 50 µM; ref [58]; cited from earlier work

CCC(=O)c1ccccc1 [Propiophenone]
CHI0 pH 2.3 [1]: 77.4

CCCCCCC(=O)c1ccccc1 [Heptanophenone]
CHI0 pH 2.3 [1]: 112.1

Cn1c(=O)c2c(ncn2C)n(C)c1=O [Caffeine]
CHI0 pH 2.3 [1]: 23.41

CCCCC(=O)c1ccccc1 [Valerophenone]
CHI0 pH 2.3 [1]: 96.4

O=C(/C=C/c1ccc(O)c(O)c1)NCCCCCCCC[P+](c1ccccc1)(c1ccccc1)c1ccccc1 [AntiOXCIN3, reference compound]
IC50 [2]: 5.08 ± 0.22 µM | SI (1): eqBChE selectivity index = IC50(eeAChE)/IC50(eqBChE) [3]: 16 | IC50 ([3]; read-out: IC50 eqBChE): 0.325 ± 0.09 µM | IC50 [4]: > 10 µM | inhibition at 10 µM [4]: < 50% | ORAC-FL Index [5]: 2.6 ± 0.1 | effect on resazurin reduction [6]: did not markedly affect | effect on NR uptake [7]: did not markedly affect | Ep (redox potential) [8]: 164 mV and 164 ^a mV | CHI [9]: 41.4 | IC50 [10]: > 10 µM | inhibition at 10 µM [10]: < 50%

c1ccc2[nH]cnc2c1 [Benzimidazole]
CHI0 pH 2.3 [1]: 6.30

COc1cc2c(c(OC)c1OC)-c1ccc(OC)c(=O)cc1[C@@H](NC(C)=O)CC2 [Colchicine]
CHI0 pH 2.3 [1]: 43.9

CC(=O)Nc1ccc(O)cc1 [Paracetamol]
CHI0 pH 2.3 [1]: 18.77

c1ccc2[nH]ccc2c1 [Indole]
CHI0 pH 2.3 [1]: 72.1

NC(=O)N1c2ccccc2C=Cc2ccccc21 [Carbamazepine]
CHI0 pH 2.3 [1]: 60.42

O=C(/C=C/c1ccc(O)c(O)c1)NCCCCCC[P+](c1ccccc1)(c1ccccc1)c1ccccc1 [AntiOXCIN2, reference compound]
IC50 [4]: > 10 µM | inhibition at 10 µM [4]: < 50% | ORAC-FL Index [5]: 2.8 ± 0.1 | effect on resazurin reduction [6]: did not markedly affect | effect on NR uptake [7]: did not markedly affect | IC50 [11]: 0.124 ± 0.007 µM | SI (1): eqBChE selectivity index = IC50(eeAChE)/IC50(eqBChE) [11]: 51 ^d | Ep (redox potential) [8]: 166 mV and 166 ^a mV | CHI [9]: 37.9 | IC50 [10]: > 10 µM | inhibition at 10 µM [10]: < 50%

CCCC(=O)c1ccccc1 [Butyrophenone]
CHI0 pH 2.3 [1]: 87.3

O=C(C=CC=Cc1ccc2c(c1)OCO2)N1CCCCC1 [Compound 1, 1-[5-(1,3-benzodioxol-5-yl)-1-oxo-2,4-pentadienyl]piperidine]
ROO• radical scavenging ([5]; ORAC-FL): unable to scavenge ROO• radicals | IC50 [12]: > 10 µM | IC50 [13]: 1.05 ± 0.08 µM | cytotoxic effects [14]: did not exhibit cytotoxic effects | CHI [9]: 73.4

Cn1c(=O)c2[nH]cnc2n(C)c1=O [Theophyline]
CHI0 pH 2.3 [1]: 17.9
